Columns and labels:
HeLa cells [1] = experiment: Effect of 3-MA on 1-induced cytotoxicity (MTT); type: cell-based, human; details: 3-MA 10 mM
Procedure: HeLa cells were pre-treated with 3-MA (10 mM) for 1 h, and then with 1 for 24 h as indicated. Cell viability was measured using MTT assay *, P<0.001. Effect of 3-MA on 1-induced cytotoxicity. Cells were seeded on 96-well microtitre plates (8×10^3 cells per well). After overnight incubation, the cells were pre-incubated with 3-methyladenine (3-MA, 10 mM) for 1 hour and then in the presence of 1 (DMSO<1%) for 24 h. Cell viability was measured by MTT assay as described before.

[2] = test system: human cervical epitheloid carcinoma cells (HeLa); experiment: MTT cell viability assay, HeLa; type: cell-based; details: for IC50 ratio cisplatin/complex, HeLa: IC50 of cisplatin divided by IC50 of complex; for IC50: MTT, 37° C., 48 h, mean ± SD of three experiments
From the text: (§1) Human cervical epitheloid carcinoma cells (HeLa), human hepatocellular carcinoma cells (HepG2 and Hep3B), human breast cancer cells (MCF-7), human coloadenocarcinoma cells (HCT-8), and normal human lung fibroblast cells (CCD-19Lu) were purchased from American Type Culture Collection (ATCC) Rockville, Md., USA. The human hepatocellular cancinoma cells QGY-7703, and the multi-drug resistant cell line QGY-TR50 derived from QGY-7703, were generously provided by Prof. Yong Xie (The Hong Kong University of Science and Technology, Hong Kong PRC). QGY-TR50 cells were isolated and cultured as described (J. Zhou, S. C. Cheng, D. Luo, Y. Xie Biochem. Biophys. Res. Commun. 2001, 280, 1237-1242). Human nasopharyngeal carcinoma cells (SUNE1 and its cisplatin-resistant variant—CNE2) were derived from poorly differentiated NPC in Chinese patients and were generously provided by Dr. S. W. Tsao (The University of Hong Kong, Hong Kong PRC). Cell culture flasks and 96-well microtitre plates were from Nalge Nunc Int. Culture medium, other medium constituents and phosphate buffer saline (PBS) were obtained by Gibco BRL Rockville, Md., USA. Cell Proliferation kit I (MTT) was purchased from Roche. Mannheim, Germany.

[3] = test system: human coloadenocarcinoma cells (HCT-8); experiment: MTT cell viability assay, HCT-8; type: cell-based; details: for IC50 ratio cisplatin/complex, HCT-8: IC50 of cisplatin divided by IC50 of complex; for IC50: MTT, 37° C., 48 h, mean ± SD
From the text: as §1

[4] = test system: human nasopharyngeal carcinoma cells (SUNE1); experiment: MTT cell viability assay, SUNE1; type: cell-based; details: for IC50 ratio cisplatin/complex, SUNE1: IC50 of cisplatin divided by IC50 of complex; for IC50: MTT, 37° C., 48 h, mean ± SD
From the text: as §1

[5] = test system: cisplatin-resistant variant (CNE2) of human nasopharyngeal carcinoma cells; experiment: MTT cell viability assay, CNE2; type: cell-based; details: for IC50: MTT, 37° C., 48 h, mean ± SD
From the text: as §1

[6] = test system: human breast cancer cells (MCF-7); experiment: MTT cell viability assay, MCF-7; type: cell-based; details: MTT, 37° C., 48 h; mean ± SD
From the text: as §1

[7] = test system: normal human lung fibroblast cells (CCD-19Lu); experiment: MTT cell viability assay, CCD-19Lu; type: cell-based; details: for IC50 ratio cisplatin/complex, CCD-19Lu: IC50 of cisplatin divided by IC50 of complex; for IC50: MTT, 37° C., 48 h, mean ± SD
From the text: as §1

[8] = Stability by UV-visible in DMSO/Tris buffer; type: physicochemical; details: DMSO/Tris buffer solution (1:9), 24 h, room temperature; complex 1 3 μM, complex 2b 7 μM
Procedure: UV-visible experiments. The absorption spectra of 3 μM of complex 1 in DMSO/Tris buffer solution (1:9) were monitored for 24 h. […] The complex was monitored over 24 h at room temperature and about 23% decrease in the Soret band intensity was recorded without any significant spectral shift in both Soret and Q-bands (FIG. 5). The absorption spectra of 7 μM of complex 2b in DMSO/Tris buffer solution (1:9) were also monitored for 24 h.

[9] = Stability by UV-visible in presence of reduced glutathione; type: physicochemical; details: 6 mM GSH in DMSO/Tris buffer solution (1:9)
Procedure: Moreover, concomitant band broadening in spectrum of complex 1 was observed after 24 h. No significant spectral shift and formation of new absorption band were observed. […] Comparing with the spectra of complex 1, the decrease in Soret band intensity of complex 2b is less significant. The intensities are only found to decrease in 2% and 19% after 2 h and 24 h, respectively. Also, there is no significant spectral shift and formation of new absorption band were observed (FIG. 8).

calf thymus DNA = experiment: Absorption titration with calf thymus DNA; type: binding; details: Tris buffer
Procedure: The calf thymus DNA was purchased from Sigma-Aldrich Chemical Co. and was purified by phenol-chloroform extraction. The DNA was dissolved in buffer (5 mM Tris, 5 mM NaCl, pH 7.2). The concentration (per base pair) or calf thymus DNA was determined spectophotometrically on the basic of ε260, 13200 M^−1cm^−1bp.
Absorption Titration. Studying the interaction between drugs and DNA is imperative to pharmaceutical chemistry. Since complexation between a ligand molecule and a nucleic acid leads to optical changes, its binding can be studied using spectroscopic methods like fluorescence and electronic absorption spectroscopy (C. V. Kumar, E. H. Asuncion, J. Am. Chem. Soc. 1993, 115, 8547-8553). The binding interactions of lanthanide (III) porphyrin complexes with calf thymus DNA were investigated using UV-vis spectroscopy and depicted in FIGS. 9 and 10 (selected absorption curves were shown for clear plot). By monitoring wavelengths at 410 nm (complex 1) and 430 nm (complex 2b), successive additions of calf thymus DNA to the respective complexes in Tris buffer solution containing <5% DMSO were done until saturation. Moderate hyprochromicities of 27% and 23% in complexes 1 and 2b were found without significant bathochromic spectral shift. […] The values of binding constant K were calculated from a plot of D/Δεap versus D based on the following equation:
Where D is the concentration of DNA, Δεap=|ΔεA−ΔεB| wherein εA=Aobs/[complex], and Δε=|ΔεB−ΔεF|; εB and εF correspond to the extinction coefficients of DNA-bound lanthanide(III) porphyrin complex adduct and its free complex, respectively. By monitoring absorbance at 410 nm (complex 1) and 430 nm (complex 2b), plots of D/Δεap against D are inserted in FIGS. 9 and 10. Linear curves in two graphs were plotted with slopes of 4.63×10^−5 (complex 1) and 3.60×10^−5 (complex 2b) (both R=0.99).

HeLa cells [10] = experiment: Confocal microscopy with AO/EB staining; type: cell-based, human; details: complex 1 0.2 μM 20 h, complex 2b 10 μM 16 h
From the text: Confocal Microscopic Experiment. By examining cell morphology under scanning confocal microscopy, the type of cell death can be distinguished. Early phase of apoptosis is characterized by the formation of apoptotic bodies when the integrity of the cell membrane is maintained without cell lysis. On the other hand, necrosis is characterized by cell lyses with the leaking out of internal cellular components such as DNA. With ethidium bromide (DNA stain) and acridine orange (cell membrane stain) as staining agents, normal, apoptotic and necrotic cells can be distinguished under laser confocal microscopy (Chan et. al., Inorg. Chem. 2002, 41, 3161-3171).

[11] = test system: human hepatocellular carcinoma cells (HepG2); experiment: MTT cell viability assay, HepG2; type: cell-based; details: for IC50: MTT, 37° C., 48 h, mean ± SD
From the text: as §1

[12] = test system: multi-drug resistant cell line QGY-TR50; experiment: MTT cell viability assay, QGY-TR50; type: cell-based, human; details: MTT, 37° C., 48 h; mean ± SD
From the text: as §1

[13] = test system: human hepatocellular cancinoma cells QGY-7703; experiment: MTT cell viability assay, QGY-7703; type: cell-based; details: MTT, 37° C., 48 h; mean ± SD
From the text: as §1

[14] = test system: human hepatocellular carcinoma cells (Hep3B); experiment: MTT cell viability assay, Hep3B; type: cell-based; details: 37° C., 48 h, mean ± SD
From the text: as §1

[15] = IC50 of cisplatin divided by IC50 of complex

| IC50 ratio cisplatin/complex, HeLa [2] | IC50 [2] | IC50 ratio cisplatin/complex, HCT-8 [3] | IC50 [3] | IC50 ratio cisplatin/complex, SUNE1 [4] | IC50 [4] | IC50 [6] | Molecule | IC50 [5] | IC50 ratio cisplatin/complex, CCD-19Lu [7] | IC50 [7] | IC50 [11] | further results |
| --- | --- | --- | --- | --- | --- | --- | --- | --- | --- | --- | --- | --- |
|  |  |  |  |  |  |  | Cn1cnc(N)c2ncnc1-2 [Complex 3-MA, 3-methyladenine, reference compound] |  |  |  |  | cell viability after pre-treatment with 3-MA alone (HeLa cells [1]): did not affect cell viability |
| 7.0 | 2.1 ± 0.3 µM | 4.6 | 5.6 ± 1.5 µM | 1.2 | 9.4 ± 0.3 µM | > 100 µM | [Yb2(TPP)2]μ-C2O4 [Complex 2b] | 16.8 ± 0.01 µM | 5.6 | 16 ± 2.9 µM |  | IC50 ratio cisplatin/complex, CNE2 [5, 15]: 3.4; decrease in Soret band intensity [8]: 5%; decrease in Soret band intensity, reduced glutathione, 2 h ([9]; 2 h): 2%; decrease in Soret band intensity, reduced glutathione, 24 h ([9]; 24 h): 19%; hyprochromicity on addition of calf thymus DNA (calf thymus DNA; <5% DMSO, until saturation, 410 nm (1), 430 nm (2b)): 23%; binding constant K with calf thymus DNA (calf thymus DNA; UV-vis absorption titration, 20° C.): (5.49±0.8)×10^5 mol^−1dm^3; cell morphology (type of cell death) under confocal microscopy (HeLa cells [10]): both living and apoptotic cells were observed |
| 2.1 | 6.9 ± 0.1 µM | 1.7 | 15.2 ± 6.1 µM | 0.7 | 16.2 ± 1.6 µM | > 100 µM | C1=Cc2nc1c(-c1ccccc1)c1ccc([n-]1)c(-c1ccccc1)c1nc(c(-c3ccccc3)c3ccc([n-]3)c2-c2ccccc2)C=C1.CC(=O)C=C(C)[O-].[Yb+3] [Complex 2a] |  | 3.6 | 25.1 ± 2.6 µM | 17.1 ± 1.3 µM | IC50 ratio cisplatin/complex, HepG2 [11, 15]: 0.3 |

| Molecule | IC50 ratio cisplatin/complex, HeLa [2] | IC50 [2] | IC50 ratio cisplatin/complex, HCT-8 [3] | IC50 [3] | IC50 ratio cisplatin/complex, SUNE1 [4] | IC50 [4] | IC50 [6] | IC50 [5] | IC50 ratio cisplatin/complex, CCD-19Lu [7] | IC50 [7] | IC50 [11] | further results |
| --- | --- | --- | --- | --- | --- | --- | --- | --- | --- | --- | --- | --- |
| N.N.[Cl][Pt][Cl] [Cisplatin, cis-diamminedichloroplatinum[II], reference compound] |  | 14.2 ± 8.2 µM |  | 26.1 ± 2.1 µM |  | 11.8 ± 1.2 µM | 35.4 ± 5 µM | 57.6 ± 4.6 µM |  | 90.6 ± 42.3 µM | 4.76 ± 0.7 µM | IC50 [12]: 32.6 ± 1.94 µM; IC50 [13]: 45.8 ± 4.13 µM; IC50 [14]: 39.8 ± 2.38 µM |

Source: patent publication US20100069345A1, “Lanthanide-porphyrin complexes as anti-tumor agents” (priority 2005, published 2010)
